Measurements published in patent US20160309708A1, “POLYCARBOXYLIC ACID ESTER ALKYL DERIVED FROM BRANCHED AND STRAIGHT ALCOHOL OF PLANT ORIGIN, AND USE OF AN ALKYL ESTER IN AGROCHEMICAL FORMULATIONS” (priority 2013, published 2016).

Assay: Solubility limit of active ingredients in the alkyl esters of polycarboxylic acids at 25° C.
Type: physicochemical
Settings: under agitation, solvent: alkyl esters of polycarboxylic acids

Compound | solubility limit in alkyl esters of polycarboxylic acids of this invention [GRAMS PER LITER]
Cc1c(COC(=O)[C@@H]2[C@H](/C=C(\Cl)C(F)(F)F)C2(C)C)cccc1-c1ccccc1 (racemic) [BIFENTRIN, Bifenthrin] | 702
CCOP(=S)(OCC)Oc1nc(Cl)c(Cl)cc1Cl [CHLORPYRIFOS, Chlorpyrifos] | 900
CCCC1COC(Cn2cncn2)(c2ccc(Cl)cc2Cl)O1 (centres unmarked) [PROPICONAZOLE, Propiconazole] | 1568
CC(C)(C)C(O)(CCc1ccc(Cl)cc1)Cn1cncn1 (centres unmarked) [TEBUCONAZOLE, Tebuconazole] | 240
Abamectin | 116
